Laboratory results taken from publication PMC3085635 (Bioorganic & medicinal chemistry letters, 2011).
Several values for one entry are separate records, joined by “and”; a condition that tells them apart may be missing. Identical values can stand only once.

What was measured:
[1] = biological target: HIV-1 integrase (IN), 3′-processing (Human immunodeficiency virus type 1 group M subtype B, UniProt P12497); experiment: biochemical
[2] = biological target: HIV-1 integrase (IN), strand transfer, wild-type (Human immunodeficiency virus type 1 group M subtype B, UniProt P12497); experiment: biochemical; conditions: Strand transfer IC50, in vitro IN assays as described in reference [4]
[3] = test system: HIV-1 integrase Y143R mutant; assay type: biochemical
[4] = test system: HIV-1 integrase N155H mutant; assay type: biochemical
[5] = test system: HIV-1 vector with G140S/Q148H integrase; assay type: cell-based; conditions: antiviral, mutant vector in cultured cells
[6] = test system: HIV-1 vector with Y143R integrase; assay type: cell-based; conditions: antiviral, cultured cells
[7] = test system: HIV-1 vector with N155H integrase; assay type: cell-based; conditions: antiviral, cultured cells
[8] = 3′-Processing IC50, in vitro IN assays as described in reference [4]

## O=C1c2ccc(O)c(O)c2C(=O)N1Cc1ccc(F)c(Cl)c1 [3-1, reference compound]
[1]; [8]
  IC50: 14 ± 3 µM
[2]
  IC50: 0.17 ± 0.06 µM

## O=C1c2ccc(O)c(O)c2C(=O)N1Cc1ccc(F)cc1 [3-2, reference compound]
[1]; [8]
  IC50: 8 ± 3 µM

## O=C1c2ccc(O)c(O)c2C(=O)N1Cc1ccc(F)c(F)c1 [3-3, reference compound]
[1]; [8]
  IC50: 27 ± 1 µM

## O=C1c2ccc(O)c(O)c2C(=O)N1Cc1cccc(Cl)c1F [3-4, reference compound]
[1]; [8]
  IC50: 25 ± 16 µM

## O=C1c2ccc(O)c(O)c2C(=O)N1Cc1ccccc1 [3-5]
[1]; [8]
  IC50: 72 ± 23 µM
[2]
  IC50: 0.4 µM and 0.39 µM

## O=C1c2ccc(O)c(O)c2C(=O)N1Cc1cccc2ccccc12 [3-6]
[1]; [8]
  IC50: 150 ± 36 µM
[2]
  IC50: 0.7 µM and 0.72 µM

## O=C1c2c(c3n(c(=O)c2O)CCC3)C(=O)N1Cc1ccc(F)c(Cl)c1 [4a-1]
[1]; [8]
  IC50: > 111 µM

## O=C1c2c(c3n(c(=O)c2O)CCCC3)C(=O)N1Cc1ccc(F)c(Cl)c1 [4b-1]
[3]
  fold less sensitive than Raltegravir to the Y143R mutation: more than 10 fold
[4]
  fold less sensitive than Raltegravir to the N155H mutation: more than 2 fold
[5]
  times less sensitive than Raltegravir to the G140S/Q148H mutation: 200 times
[6]
  fold lower loss of potency compared to Raltegravir, Y143R vector: 10 fold
[7]
  fold lower loss of potency compared to Raltegravir, N155H vector: 10 fold
Cultured cells
  cytotoxicity fold lower than 3-1: 30 fold
[1]; 3′-P IC50, metal cofactor Mg2+
  IC50: > 111 µM
[1]; [8]
  IC50: > 111 µM

## O=C1c2c(c3n(c(=O)c2O)CCCCC3)C(=O)N1Cc1ccc(F)c(Cl)c1 [4c-1]
[1]; [8]
  IC50: > 111 µM

## O=C1c2c(c3n(c(=O)c2O)CCCCC3)C(=O)N1Cc1ccc(F)cc1 [4c-2]
[1]; [8]
  IC50: > 111 µM

## O=C1c2c(c3n(c(=O)c2O)CCCCC3)C(=O)N1Cc1ccc(F)c(F)c1 [4c-3]
[1]; [8]
  IC50: > 111 µM

## O=C1c2c(c3n(c(=O)c2O)CCCCC3)C(=O)N1Cc1cccc(Cl)c1F [4c-4]
[1]; [8]
  IC50: > 111 µM

## O=C1c2c(c3n(c(=O)c2O)CCCCC3)C(=O)N1Cc1ccccc1 [4c-5]
[1]; [8]
  IC50: > 111 µM
[2]
  IC50: > 111 µM

## O=C1c2c(c3n(c(=O)c2O)CCCCC3)C(=O)N1Cc1cccc2ccccc12 [4c-6]
[1]; [8]
  IC50: > 111 µM

## O=C1c2c(c3n(c(=O)c2O)CCCCCC3)C(=O)N1Cc1ccc(F)c(Cl)c1 [4d-1]
[1]; [8]
  IC50: > 111 µM
